From patent US4342780A, “Method of depleting endogenous monoamines” (Merrell-Toraude et Cie, priority 1981, dated 1982) come the findings set out here.

Structures are written as SMILES.

A short description of data set [1]: Deaths in mice after repeated i.p. doses (Table II footnotes). The conditions noted are these: 100 mg/kg i.p. twice daily, three days; number dead of animals. The class given is in vivo, mice (Swiss Albino). The protocol: (§1) The test animals (e.g. mice or rats) are given the test compound in a suitable vehicle, either orally or by injection, each day over the period of time desired. The animals are kept on a constant time cycle, and body weights are measured daily. The animals are sacrificed by decapitation 12 to 24 hours after receiving the last dose of the test compound. Control animals receive the vehicle alone.
(§2) Table II, shown below, sets forth the results obtained by testing particular compounds of Formula I in the above-described procedure in mice (Swiss Albino) after i.p. administration of the compound twice daily for three days: […]

Data set [2] deals with AADC. The data set is described as follows: Ex vivo AADC activity in organs of mice after repeated i.p. doses (Table II). Also noted: species or system mice (Swiss Albino). The settings on record: three days, 12 h after 6th dose, vs control. The protocol: as §1
(§3) Immediately after death, the organs (brain, heart, and kidney) are removed and homogenized either in 50 ml phosphate buffer pH 6.8 for AADC determination or in ice-cold 0.4 M HClO4 containing 0.05% (w/v) EDTA and 0.1% (w/v) sodium bisulfite for catecholamine determination. AADC activity is determined by the ^14 CO2 trapping method of J. Christenson, supra (see Example 14) using DL-[1-^14 C]-dopa as the substrate. Catecholamines are determined by centrifuging the homogenate, adding the supernatant to alumina buffered to pH 8.0-8.4 to adsorb the catecholamines, re-extracting the catecholamines from the alumina with 0.2 M HClO4 and determining the catecholamines in the extracts using known procedures, such as by reversed-phase ion-pair HPLC with electrochemical detection.
as §2

Data set [3] has as its system catecholamine content (norepinephrine, dopamine). The data set is described as follows: Catecholamine content in organs of mice after repeated i.p. doses (Table II). In kind it is in vivo, mice (Swiss Albino). The conditions noted are these: three days, 12 h after 6th dose, vs control. The protocol: as §1, §3, §2
For data set [4], the target named is T1, AADC (Sus scrofa, UniProt P80041).
T1 sequence (P80041 1-486): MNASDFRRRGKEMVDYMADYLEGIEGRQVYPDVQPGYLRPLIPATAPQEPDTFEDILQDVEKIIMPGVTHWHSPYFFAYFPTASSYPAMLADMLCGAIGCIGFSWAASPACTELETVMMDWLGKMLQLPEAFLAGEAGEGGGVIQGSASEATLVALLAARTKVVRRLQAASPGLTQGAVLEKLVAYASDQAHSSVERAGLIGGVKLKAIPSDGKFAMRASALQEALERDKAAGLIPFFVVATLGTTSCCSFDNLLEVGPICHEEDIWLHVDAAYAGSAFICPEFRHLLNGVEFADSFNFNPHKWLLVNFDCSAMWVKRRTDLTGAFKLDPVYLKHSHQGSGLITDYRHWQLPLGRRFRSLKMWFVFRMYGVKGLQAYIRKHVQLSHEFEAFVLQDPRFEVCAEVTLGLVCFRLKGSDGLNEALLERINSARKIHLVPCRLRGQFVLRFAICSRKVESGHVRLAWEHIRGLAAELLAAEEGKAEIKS
The data set is described as follows: In vitro AADC inhibition: time of 90% inactivation (14CO2 trapping, DL-[1-14C]-dopa substrate). The class given is biochemical, hog. Also noted: key to RATING: ++++: The relative activities of the compounds are rated by the given number of "plus" signs; +++: The relative activities of the compounds are rated by the given number of "plus" signs; 0-+: The relative activities of the compounds are rated by the given number of "plus" signs. The settings on record: CONC. 100 μM; for TIME OF 90% INACTIVATION: pH 7.4, 37° C.; for RATING: relative activity. How it is done:
AADC can be purified from hog kidney by the general method of J. Christenson et al. Archs. Biochem. Biophys., 141, 356 (1970) and G. Lancaster et al., Can. J. Biochem., 50, 791 (1972), and the specific activity of the enzyme is determined by the ^14 CO2 trapping method using DL-[1-^14 C]-dopa as the substrate (see Christenson et al.). One unit of activity is defined as the total amount of enzyme which produces 1 n mol of CO2 per minute, with DL-[1-^14 C]-dopa as substrate.
To 100 μl of 50 mM-phosphate buffer pH 7.4 containing 100 mM-mercapto-ethanol are added 5 μl of an aqueous solution containing the test compound at the desired concentration and 50 μl of an aqueous solution containing 2 units of AADC. The mixture is incubated at 37° C. and 20 μl aliquots are removed at various times. The AADC activity remaining in each aliquot is measured by the CO2 trapping method of Christenson.
The relative activities of the compounds are rated by the given number of "plus" signs.

The subject of data set [5] is AADC. The data set is described as follows: Ex vivo AADC activity in brain of rats after repeated i.p. doses (Table II, footnote c). The settings on record: 100 mg/kg i.p. twice daily, three days, 12 h after 6th dose, vs control. How it is done: as §1, §3, §2
The subject of data set [6] is endogenous catecholamine and 5-HT levels. The data set is described as follows: Effect on endogenous catecholamine and 5-HT levels in brain and heart (general statement). In kind it is in vivo.
The test system of data set [7] is catecholamine content (norepinephrine, dopamine). The data set is described as follows: Catecholamine content in organs of rats after repeated i.p. doses (Table II, footnote c). The class given is in vivo. The conditions noted are these: 100 mg/kg i.p. twice daily, three days, 12 h after 6th dose, vs control. The protocol: as §1, §3, §2
[8] abbreviates: 10 mg/kg i.p. twice daily, * not significant.
The mark [9] stands for this setting: 10 mg/kg i.p. twice daily, * not significant (-25*, -7*).
Setting [10] is: 10 mg/kg i.p. twice daily, * not significant (-25*, -9*).
The mark [11] stands for this setting: 100 mg/kg i.p. twice daily, * not significant (-35*).

As for `Cc1ccc(CC(N)(CF)C(=O)O)c(O)c1` (stereo not drawn) [2-OH4-methyl phenyl, 2-amino-2-fluoromethyl-3-(2-hydroxy-4-methylphenyl)propionic acid], in data set [1], the dead is listed as 2/5. The results for the “% CHANGE AADC Brain” value with AADC [2] (10 mg/kg i.p. twice daily) and with AADC [2] (100 mg/kg i.p. twice daily) were -39% and -99%, respectively. Further, the entries for the “% CHANGE AADC Kidney” value in the data set with AADC [2] (10 mg/kg i.p. twice daily) and in the data set with AADC [2] (100 mg/kg i.p. twice daily) were -70% and -99.5%, respectively. The results for the “% CHANGE NOREPINEPHRINE Brain” value in data set [3] (setting [8]) and in data set [3] (100 mg/kg i.p. twice daily) were 0% and -69%, respectively. Moreover, the “% CHANGE NOREPINEPHRINE Heart” value in data set [3] (setting [9]) is reported as -7%; in data set [3] (100 mg/kg i.p. twice daily), -75%. Besides, the “% CHANGE DOPAMINE Brain” value was -9% in data set [3] (setting [10]) and -35% in data set [3] (setting [11]). The “TIME OF 90% INACTIVATION” value at AADC [4] stood at 1 min. For the same compound, at AADC [4], the RATING entry is recorded as “+++”.
For `Cc1cccc(CC(N)(CF)C(=O)O)c1O` (stereo not drawn) [2-OH3-methyl phenyl, 2-Amino-2-fluoromethyl-3-(2-hydroxy-3-methylphenyl)propionic acid], the dead in data set [1] is 1/5. Moreover, the “% CHANGE AADC Brain” value in the data set with AADC [2] (10 mg/kg i.p. twice daily) is given as -52%; with AADC [2] (100 mg/kg i.p. twice daily), -94%. Further, the “% CHANGE AADC Kidney” value in the data set with AADC [2] (10 mg/kg i.p. twice daily) is -84%; with AADC [2] (100 mg/kg i.p. twice daily) it was -98%. In addition, the “% CHANGE NOREPINEPHRINE Brain” value in data set [3] (setting [8]) is -27%; in data set [3] (100 mg/kg i.p. twice daily), -47%. For the same compound, the entries for the “% CHANGE NOREPINEPHRINE Heart” value in data set [3] (setting [9]) and in data set [3] (100 mg/kg i.p. twice daily) were -41% and -68%, respectively. Also, the “% CHANGE DOPAMINE Brain” value was -20% in data set [3] (setting [10]) and -24% in data set [3] (setting [11]). The “TIME OF 90% INACTIVATION” value at AADC [4] turned out to be 1 min. Further, the RATING result on AADC [4] is reported as “+++”.
In the case of `NC(CF)(Cc1ccc(O)cc1)C(=O)O` (stereo not drawn) [Example 4-OH-phenyl, 2-Amino-2-fluoromethyl-3-(4-hydroxyphenyl)propionic acid], the “% CHANGE AADC Brain” value in the data set on AADC [5] is on record as -88%. The “selectivity (brain catecholamines lowered, not heart, not brain 5-HT)” value in data set [6] is “not found”. Besides, in data set [7], the “% CHANGE DOPAMINE Brain” value is -88%, the “% CHANGE NOREPINEPHRINE Brain” value is on record as -54% and the “% CHANGE NOREPINEPHRINE Heart” value is listed as -45%. Also, at AADC [4], the “TIME OF 90% INACTIVATION” value is greater than 300 min and the RATING is listed as 0-+.
